{"source": "patent US20020192178A1", "about": "“Leguminous extract heavy-metal-scavenging anti-pollution agent” (L'OREAL, priority 2001, published 2002)", "test_system": "immortalized human keratinocytes (DK7-NR)", "test": "Protective effect against cadmium cytotoxicity, Neutral Red incorporation test", "format": "cell-based", "details": "cadmium chloride alone, 0% extract of maize, 24 hours; read-out: IC50 (concentration of CdCl2 inducing a 50% decrease in viability)", "experimental": "Heavy metals such as cadmium, nickel, lead, mercury, etc. can cause cytotoxicity on the cells of various organs including the skin. The cytotoxic effect of cadmium on human keratinocytes in culture was evaluated by a technique for measuring the cell viability: the Neutral Red incorporation test (Culture Methods. 1984, 9, 7-9).\nThe study was performed on a monolayer culture of immortalized human keratinocytes (DK7-NR) by the Nestle research center. The cells are inoculated on D-3 in 96-well culture dishes at a rate of 25 000 cells/cm^2 in 100 µl of culture medium (medium defined without calf serum, NR2, Biofluids). The incubations are performed in an incubator at 37° C. in humid atmosphere enriched with 5% CO2.\nThe cells are treated [lacuna] 24 hours with increasing concentrations (0, 10, 25, 50, 75, 100, 150 and 200 μM) of cadmium chloride (CdC12) alone, so as to determine its cytotoxicity. In parallel, a treatment is performed under the same conditions, but in the presence of the extract of maize (Phytovityl® at 0.5% and 1%, non-cytotoxic concentrations for the cells). The incubations are performed in an incubator at 37° C., 5% CO2 in a humid atmosphere.\nAt the end of the contact period, the cell viability is determined by means of a Neutral Red (POS 55/006) incorporation test, with spectrophotometric reading at 500 nm. […]", "note": "pIC50: −log10 of the molar value."}
{"smiles": "[Cl][Cd][Cl]", "note": "[cadmium chloride]", "values": [{"measurement": "pIC50", "value": 4.42}]}
